In brackets after ≈: the same amount, converted by molar mass. Like-named read-outs stand apart in the source and are kept apart here.
Legend:
[1] = tested on: P388 murine leukemia cells; experiment: Combination of antifolates with FU and LV on P388 proliferation; assay type: cell-based
[2] = tested on: HT29 human colon adenocarcinoma cells; experiment: Combination of antifolates with FU and LV on HT-29 proliferation (sulphorhodamine B)
P388S cells = experiment: In vitro growth inhibition of P388S cells; assay type: cell-based; details: Mus musculus, P388/S; in vitro; read-out: P388S IC50
colon cancer = details: cited from earlier work
P388 leukemia = experiment: In vivo P388 leukemia life span study; set-up: species or system CD2F1 mice; details: maximum tolerated dose, i.p. Days 3-11 (Adriamycin Days 3, 7, 11); >130 = antitumor effect
[3] = tested on: C26 murine colon tumor cells; experiment: Combination of antifolates with FU and LV on C26 proliferation; assay type: cell-based
P388/ADR cells [4] = experiment: Combination of antifolates with FU and LV on P388/ADR proliferation; assay type: cell-based, murine
C26/10 tumor = experiment: C26/10 s.c. tumor growth delay study; assay type: in vivo, CD2F1 mice; details: tumor growth delay to 750 mg, s.c. implant, treated i.p. Days 3-7 and 10-14; >5 to 6 days = antitumor effect
Procedure: (§1) To test compounds of the present invention in vivo, the following methodology was used. P388 leukemia and its Adriamycin resistant subline, P388/ADR were passed weekly in DBA/2 mice as i.p. implants of 10^5 and 10^6 cells, respectively. Animals bearing P388/ADR passage were treated with 7 mg/kg Adriamycin on Day 3 post-implant as a resistance selection pressure. C26/clone 10 was passed every 2 weeks into Balb/c mice as tumor fragments (approximately 30 mg) which were obtained from tumors 1 g in mass.
For the tumor growth delay studies with C26/10, CD2F1 mice were implanted s.c. with 30 mg tumor fragments in the region of the right axilla with the aid of a trocar on Day 0. Animals were treated i.p. with test agents in the vehicles described above on Days 3-7 and 10-14. Adriamycin was dosed i.p. in saline on Days 5, 9, and 13. Tumors in the treated and control groups were measured twice weekly in two perpendicular dimensions and tumor mass calculated according to the formula: mass (mg)=(a×b^2)/2 where “b” is the smallest tumor dimension and “a” is the largest. Calculations of tumor growth delay, defined as the median time (in days) for the treated tumors to reach 750 mg in size minus the median time (in days) for the control tumors to reach 750 mg in size, were as described previously (Schabel, 1977; Leopold, 1985; Elliot, 1984). Growth delays in excess of 5 to 6 days in the C26/10 model are considered to be an antitumor effect.

P388/ADR leukemia = experiment: In vivo P388/ADR leukemia life span study; set-up: species or system CD2F1 mice
P388/ADR cells [5] = experiment: In vitro growth inhibition of P388/ADR cells; assay type: cell-based, murine
[6] = tested on: Colon 26/clone 10 (C26/10); experiment: Colon 26/clone 10 i.p. life span study; assay type: in vivo, CD2F1 mice
Procedure: as §1
Colon 26/clone 10 (C26/10) life span studies were conducted in CD2F1 mice. C26/C10 cells were implanted i.p. on Day 0. Animals were treated i.p. with test agents in the vehicles described above on Days 3-7 and 10-14. Adriamycin was dosed i.p. in saline on Days 5, 9, and 13. […] Percent T/C values in excess of 130 are indicative of an antitumor effect in this model.

[7] = in words, TMQ at a concentration 10-fold higher than the other antifolates

COc1cc(NCc2ccc3nc(N)nc(N)c3c2C)cc(OC)c1OC [Trimetrexate, reference compound]
Antifol + FU ([1]; antifolate 1.0 nM 24 hours, 5 μM FU final 4 hours): 12% of control
Antifol + LV ([1]; antifolate 1.0 nM 24 hours, LV 10 μM final 4.5 hours): 85% of control
Antifol + LV + FU ([1]; antifolate 1.0 nM 24 hours, LV 10 μM final 4.5 hours, 5 μM FU final 4 hours): 9% of control
Antifol ([1]; antifolate 1.0 nM, 24 hours): 80% of control
Antifol + FU ([2]; antifolate 62.5 nM 24 hours, 5 μM FU final 4 hours): 35% of control
Antifol + LV ([2]; antifolate 62.5 nM 24 hours, LV 10 μM final 4.5 hours): 77% of control
Antifol + LV + FU ([2]; antifolate 62.5 nM 24 hours, LV 10 μM final 4.5 hours, 5 μM FU final 4 hours): 30% of control
Antifol ([2]; antifolate 62.5 nM, 24 hours): 75% of control
IC50 (P388S cells): 0.0069 µg/mL (≈ 0.0187 µM)
response rate (colon cancer; TMQ added to LV/FU, colon cancer patients previously treated with FU): 20%
response rate (colon cancer; combination of TMQ, FU and LV, metastatic colorectal cancer patients): 50%
P388S T/C (P388 leukemia): 164%
Antifol + FU ([3]; C26, antifolate 0.125 μM 24 hours, 5 μM FU final 4 hours): 65% of Control
Antifol + LV ([3]; C26, antifolate 0.125 μM 24 hours, LV 10 μM final 4.5 hours): 98% of Control
Antifol + FU + LV ([3]; C26, antifolate 0.125 μM 24 hours, LV 10 μM final 4.5 hours, 5 μM FU final 4 hours): 64% of Control
Antifol ([3]; C26, antifolate 0.125 μM, 24 hours): 101% of Control
effect on C26 proliferation alone ([3]; in words, 0.125 μM): no effect
synergy with FU and/or LV on C26 cells ([3]; in words, 0.125 μM): no significant synergy
Antifol + FU (P388/ADR cells [4]; P388/ADR, TMQ 10 nM 24 hours, 5 μM FU final 4 hours): 83% of control
Antifol + LV (P388/ADR cells [4]; P388/ADR, TMQ 10 nM 24 hours, LV 10 μM final 4.5 hours): 100% of control
Antifol + LV + FU (P388/ADR cells [4]; P388/ADR, TMQ 10 nM 24 hours, LV 10 μM final 4.5 hours, 5 μM FU final 4 hours): 76% of control
Antifol (P388/ADR cells [4]; P388/ADR, TMQ 10 nM, 24 hours): 92% of control
activity alone against P388/ADR cells (P388/ADR cells [4]; [7]): little activity alone
increase in activity by addition of FU or LV, P388/ADR cells (P388/ADR cells [4]; [7]): nor was a significant increase in activity observed
C26 sc T-C (C26/10 tumor): 6.8 days
activity against P388/ADR tumors in vivo (P388/ADR leukemia; in words): inactive
P388/ADR T/C (P388/ADR leukemia; maximum tolerated dose, i.p. Days 3-11 (Adriamycin Days 3, 7, 11), >130 = antitumor effect): 113%
IC50 (P388/ADR cells [5]; Mus musculus, P388/ADR, in vitro): 0.152 µg/mL (≈ 0.411 µM)
R/S (P388/ADR cells [5]; ratio resistant (P388/ADR) to sensitive (P388S) IC50): 22
C26 ip T/C ([6]; i.p. implant, treated i.p. Days 3-7 and 10-14 (Adriamycin Days 5, 9, 13), >130 = antitumor effect): 119%
activity against C26 colon tumor in vivo ([6]; in words, T/C×100>130 represents in vivo antitumor activity): without activity

— US20040006042A1, “Diaminopyrimidines and combination therapies effective for treatment of P-glycoprotein positive cancers” (priority 1998, published 2004)
